We go through 32 compounds from patent US11608335B2, “Somatostatin modulators and uses thereof” (CRINETICS PHARMACEUTICALS, INC., priority 2018, dated 2023).

The target in the test is human somatostatin receptor subtype 5 (Homo sapiens, UniProt P35346). The test can be described thus: cAMP assay for SST5R (inhibition of cAMP via human SST5 receptor). In general terms: Changes in cAMP serve as a functional read-out for many G protein-coupled receptors.
Sequence of human somatostatin receptor subtype 5 (P35346 whole entry): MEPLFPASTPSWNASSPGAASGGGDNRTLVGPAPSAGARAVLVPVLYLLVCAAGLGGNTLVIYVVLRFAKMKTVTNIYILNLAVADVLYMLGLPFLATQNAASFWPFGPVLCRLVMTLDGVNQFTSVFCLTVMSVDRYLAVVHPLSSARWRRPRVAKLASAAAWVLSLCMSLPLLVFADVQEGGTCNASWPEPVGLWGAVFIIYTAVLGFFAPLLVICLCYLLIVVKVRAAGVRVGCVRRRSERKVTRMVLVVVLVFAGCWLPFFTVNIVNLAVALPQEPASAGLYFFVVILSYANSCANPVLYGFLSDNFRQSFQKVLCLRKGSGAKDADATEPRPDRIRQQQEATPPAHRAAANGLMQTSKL
In the case of `Cc1cccc(-c2cncc(-c3nc4c(F)cc(F)cc4[nH]3)c2N2CC(CN)C2)c1` [Compound 1-29, 1-{1-[3-(4,6-difluoro-1H-1,3-benzodiazol-2-yl)-5-(3-methylphenyl)pyridin-4-yl]azetidin-3-yl}methanamine], the EC50 (as a rule, the concentration at which the effect is half-maximal) was below 10 nM.

In the case of `Cc1ccccc1-c1cncc(-c2nc3cc(F)cc(F)c3[nH]2)c1N1CC(CN)C1` [Compound 1-30, 1-{1-[3-(4,6-difluoro-1H-1,3-benzodiazol-2-yl)-5-(2-methylphenyl)pyridin-4-yl]azetidin-3-yl}methanamine], the EC50 fell in the range of 10 to 100 nM.

Compound `Cc1ccc(-c2cncc(-c3nc4cc(F)cc(F)c4[nH]3)c2N2CC(CN)C2)cc1` [Compound 1-31, 1-{1-[3-(4,6-difluoro-1H-1,3-benzodiazol-2-yl)-5-(4-methylphenyl)pyridin-4-yl]azetidin-3-yl}methanamine] showed an EC50 of 10 to 100 nM.

Take `Cc1cncc(-c2cncc(-c3nc4cc(F)cc(F)c4[nH]3)c2N2CC(CN)C2)c1` [Compound 1-32, 1-{1-[5-(4,6-difluoro-1H-1,3-benzodiazol-2-yl)-5′-methyl-[3,3′-bipyridin]-4-yl]azetidin-3-yl}methanamine]: the EC50 was 100 to 1000 nM.

For `Cc1cc(-c2cncc(-c3nc4cc(F)cc(F)c4[nH]3)c2N2CC(CN)C2)cc(C(F)(F)F)c1` [Compound 1-33, 1-{1-[3-(4,6-difluoro-1H-1,3-benzodiazol-2-yl)-5-[3-methyl-5-(trifluoromethyl)phenyl]pyridin-4-yl]azetidin-3-yl}methanamine], the EC50 was 100 to 1000 nM.

`N#Cc1cc(F)cc(-c2cncc(-c3nc4cc(F)cc(F)c4[nH]3)c2N2CC(CN)C2)c1` [Compound 1-34, 3-{4-[3-(aminomethyl)azetidin-1-yl]-5-(4,6-difluoro-1H-1,3-benzodiazol-2-yl)pyridin-3-yl}-5-fluorobenzonitrile] came in with an EC50 below 10 nM.

For the compound `NCC1CN(c2c(-c3ccc4cc[nH]c4c3)cncc2-c2nc3cc(F)cc(F)c3[nH]2)C1` [Compound 1-35, 1-{1-[3-(4,6-difluoro-1H-1,3-benzodiazol-2-yl)-5-(1H-indol-6-yl)pyridin-4-yl]azetidin-3-yl}methanamine], the EC50 was above 1000 nM.

In the case of `NCC1CN(c2c(-c3nc4cc(F)cc(F)c4[nH]3)cncc2-c2cccc3cc[nH]c23)C1` [Compound 1-36, 1-{1-[3-(4,6-difluoro-1H-1,3-benzodiazol-2-yl)-5-(1H-indol-7-yl)pyridin-4-yl]azetidin-3-yl}methanamine], the EC50 lay in the range of 10 to 100 nM.

In turn, `NCC1CN(c2c(-c3cc(Cl)cc(C(F)(F)F)c3)cncc2-c2nc3cc(F)cc(F)c3[nH]2)C1` [Compound 1-40, 1-(1-{3-[3-chloro-5-(trifluoromethyl)phenyl]-5-(4,6-difluoro-1H-1,3-benzodiazol-2-yl)pyridin-4-yl}azetidin-3-yl)methanamine] came in with an EC50 of 10 to 100 nM.

Consider `NCC1CN(c2c(-c3nc4c(F)cc(F)cc4[nH]3)cncc2-c2ccccc2F)C1` [Compound 1-44, 1-{1-[3-(4,6-difluoro-1H-1,3-benzodiazol-2-yl)-5-(2-fluorophenyl)pyridin-4-yl]azetidin-3-yl}methanamine], for which the EC50 was 100 to 1000 nM.

Take `Cc1ccc(F)c(-c2cncc(-c3nc4cc(F)cc(F)c4[nH]3)c2N2CC(CN)C2)c1` [Compound 1-45, 1-{1-[3-(4,6-difluoro-1H-1,3-benzodiazol-2-yl)-5-(2-fluoro-5-methylphenyl)pyridin-4-yl]azetidin-3-yl}methanamine]: the EC50 was 10 to 100 nM.

Consider `Cc1ccc(F)cc1-c1cncc(-c2nc3cc(F)cc(F)c3[nH]2)c1N1CC(CN)C1` [Compound 1-46, 1-{1-[3-(4,6-difluoro-1H-1,3-benzodiazol-2-yl)-5-(5-fluoro-2-methylphenyl)pyridin-4-yl]azetidin-3-yl}methanamine], for which the EC50 was 10 to 100 nM.

The compound `Cc1cc(-c2cncc(-c3nc4cc(F)cc(F)c4[nH]3)c2N2CC(CN)C2)ccc1F` [Compound 1-47, 1-{1-[3-(4,6-difluoro-1H-1,3-benzodiazol-2-yl)-5-(4-fluoro-3-methylphenyl)pyridin-4-yl]azetidin-3-yl}methanamine] showed an EC50 below 10 nM.

`NCC1CN(c2c(-c3cc(F)c(F)c(F)c3)cncc2-c2nc3cc(F)cc(F)c3[nH]2)C1` [Compound 1-48, 1-{1-[3-(4,6-difluoro-1H-1,3-benzodiazol-2-yl)-5-(3,4,5-trifluorophenyl)pyridin-4-yl]azetidin-3-yl}methanamine]: the EC50 is below 10 nM.

`Cc1cc(F)cc(-c2cncc(-c3nc4cc(F)cc(F)c4[nH]3)c2N2CC(C(N)CO)C2)c1` (centres unmarked) [Compound 1-49, 2-Amino-2-{1-[3-(4,6-difluoro-1H-1,3-benzodiazol-2-yl)-5-(3-fluoro-5-methylphenyl)pyridin-4-yl]azetidin-3-yl}ethan-1-ol]: the EC50 is below 10 nM.

`Cc1cc(F)cc(-c2cncc(-c3nc4c(F)cc(F)cc4[nH]3)c2N2CC(C)(CN)C2)c1` [Compound 1-50, 1-{1-[3-(4,6-difluoro-1H-1,3-benzodiazol-2-yl)-5-(3-fluoro-5-methylphenyl)pyridin-4-yl]-3-methylazetidin-3-yl}methanamine] yielded an EC50 below 10 nM.

In turn, `NCC1CN(c2c(-c3nc4cc(F)cc(F)c4[nH]3)cncc2-c2cccc3ccccc23)C1` [Compound 1-52, 1-{1-[3-(4,6-difluoro-1H-1,3-benzodiazol-2-yl)-5-(naphthalen-1-yl)pyridin-4-yl]azetidin-3-yl}methanamine] had an EC50 of 10 to 100 nM.

`NCC1CN(c2c(-c3cccc(Cl)c3)cncc2-c2nc3c(F)cc(F)cc3[nH]2)C1` [Compound 1-53, 1-{1-[3-(3-chlorophenyl)-5-(4,6-difluoro-1H-1,3-benzodiazol-2-yl)pyridin-4-yl]azetidin-3-yl}methanamine] yielded an EC50 below 10 nM.

Turning to `N#Cc1cccc(-c2cncc(-c3nc4c(F)cc(F)cc4[nH]3)c2N2CC(CN)C2)c1` [Compound 1-54, 3-{4-[3-(aminomethyl)azetidin-1-yl]-5-(4,6-difluoro-1H-1,3-benzodiazol-2-yl)pyridin-3-yl}benzonitrile], the EC50 is below 10 nM.

Compound `Cc1ccc(-c2cncc(-c3nc4cc(F)cc(F)c4[nH]3)c2N2CC(CN)C2)cc1F` [Compound 1-55, 1-{1-[3-(4,6-difluoro-1H-1,3-benzodiazol-2-yl)-5-(3-fluoro-4-methylphenyl)pyridin-4-yl]azetidin-3-yl}methanamine] yielded an EC50 of 10 to 100 nM.

The compound `Cc1cc(F)cc(-c2cncc(-c3ncc[nH]3)c2N2CC(CN)C2)c1` [Compound 1-56, 1-{1-[3-(3-fluoro-5-methylphenyl)-5-(1H-imidazol-2-yl)pyridin-4-yl]azetidin-3-yl}methanamine] gave an EC50 above 1000 nM.

`NCC1CN(c2c(-c3nc4cc(F)cc(F)c4[nH]3)cncc2-c2cccc(Cl)c2F)C1` [Compound 1-57, 1-{1-[3-(3-chloro-2-fluorophenyl)-5-(4,6-difluoro-1H-1,3-benzodiazol-2-yl)pyridin-4-yl]azetidin-3-yl}methanamine]: the EC50 was 10 to 100 nM.

Turning to `COc1cc(F)cc(-c2cncc(-c3nc4cc(F)cc(F)c4[nH]3)c2N2CC(CN)C2)c1` [Compound 1-58, 1-{1-[3-(4,6-difluoro-1H-1,3-benzodiazol-2-yl)-5-(3-fluoro-5-methoxyphenyl)pyridin-4-yl]azetidin-3-yl}methanamine], the half-maximal effective concentration (EC50) is below 10 nM.

The compound `COc1cc(Cl)cc(-c2cncc(-c3nc4c(F)cc(F)cc4[nH]3)c2N2CC(CN)C2)c1` [Compound 1-59, 1-{1-[3-(3-chloro-5-methoxyphenyl)-5-(4,6-difluoro-1H-1,3-benzodiazol-2-yl)pyridin-4-yl]azetidin-3-yl}methanamine] had a half-maximal effective concentration (EC50) below 10 nM.

In the case of `NCC1CN(c2c(-c3cc(Cl)cc(Cl)c3)cncc2-c2nc3cc(F)cc(F)c3[nH]2)C1` [Compound 1-60, 1-{1-[3-(3,5-dichlorophenyl)-5-(4,6-difluoro-1H-1,3-benzodiazol-2-yl)pyridin-4-yl]azetidin-3-yl}methanamine], the EC50 is below 10 nM.

`NCC1(F)CN(c2c(-c3cc(F)cc(Cl)c3)cncc2-c2nc3cc(F)cc(F)c3[nH]2)C1` [Compound 1-62, 1-{1-[3-(3-chloro-5-fluorophenyl)-5-(4,6-difluoro-1H-1,3-benzodiazol-2-yl)pyridin-4-yl]-3-fluoroazetidin-3-yl}methanamine] returned an EC50 below 10 nM.

Turning to `CC(N)C1CN(c2c(-c3cc(F)cc(C(F)(F)F)c3)cncc2-c2nc3c(F)cc(F)cc3[nH]2)C1` (centres unmarked) [Compound 1-63, 1-{1-[3-(4,6-difluoro-1H-1,3-benzodiazol-2-yl)-5-[3-fluoro-5-(trifluoromethyl)phenyl]pyridin-4-yl]azetidin-3-yl}ethan-1-amine], the EC50 was below 10 nM.

Take `Cc1c(Cl)cccc1-c1cncc(-c2nc3cc(F)cc(F)c3[nH]2)c1N1CC(CN)C1` [Compound 1-66, 1-{1-[3-(3-chloro-2-methylphenyl)-5-(4,6-difluoro-1H-1,3-benzodiazol-2-yl)pyridin-4-yl]azetidin-3-yl}methanamine]: the EC50 fell in the range of 10 to 100 nM.

In the case of `Cc1cccc(-c2cncc(-c3nc4cc(F)cc(F)c4[nH]3)c2N2CC(CN)C2)c1F` [Compound 1-67, 1-{1-[3-(4,6-difluoro-1H-1,3-benzodiazol-2-yl)-5-(2-fluoro-3-methylphenyl)pyridin-4-yl]azetidin-3-yl}methanamine], the EC50 lay within 100 to 1000 nM.

In the case of `CCOc1ccc(-c2cncc(-c3nc4c(F)cc(F)cc4[nH]3)c2N2CC(C(C)N)C2)cc1F` (centres unmarked) [Compound 1-72, 1-{1-[3-(4,6-difluoro-1H-1,3-benzodiazol-2-yl)-5-(4-ethoxy-3-fluorophenyl)pyridin-4-yl]azetidin-3-yl}ethan-1-amine], the EC50 lay within 10 to 100 nM.

In the case of `COc1c(F)cccc1-c1cncc(-c2nc3cc(F)cc(F)c3[nH]2)c1N1CC(C(C)N)C1` (centres unmarked) [Compound 1-73, 1-{1-[3-(4,6-difluoro-1H-1,3-benzodiazol-2-yl)-5-(3-fluoro-2-methoxyphenyl)pyridin-4-yl]azetidin-3-yl}ethan-1-amine], the EC50 is below 10 nM.

`CC(N)C1CN(c2c(-c3nc4cc(F)cc(F)c4[nH]3)cncc2-c2cccc(F)c2Cl)C1` (centres unmarked) [Compound 1-74, 1-{1-[3-(2-chloro-3-fluorophenyl)-5-(4,6-difluoro-1H-1,3-benzodiazol-2-yl)pyridin-4-yl]azetidin-3-yl}ethan-1-amine] showed an EC50 below 10 nM.
